{"source": "patent US20220193081A1", "about": "(Ellamed IP & Services PTE. LTD., priority 2019, published 2022)", "assay_type": "physicochemical", "procedure": "840 mg of sildenafil base (Carbosynth) was introduced into 40 ml of 50% aqueous ethanol at an unadjusted pH of 7.7. […] Finally, the pH of the mixture was further lowered to a pH of approximately 4 by the introduction of additional 1M HCl upon which the mixture began to solubilize.\n840 mg of sildenafil base (Carbosynth), together with 840 mg of sucralose was introduced into 40 ml of 50% aqueous ethanol at an unadjusted pH of 7.7. […] The pH of the mixture was further lowered to a pH of approximately 4.6 by the introduction of additional 1M HCl upon which the mixture began to solubilize. Additional 1M HCl was added to the mixture until it completely solubilized at a pH of 3.83.\n945 mg of sildenafil base (Carbosynth), together with 945 mg of sucralose was introduced into 45 ml of 50% aqueous ethanol at an unadjusted pH of 7.7. […] The pH of the mixture was then lowered to by the stepwise introduction of 1M HCl during stirring until the mixture was fully solubilized at pH 4.92.", "note": "Like-named read-outs stand apart in the source and are kept apart here."}
{"smiles": "CCCc1nn(C)c2c(=O)[nH]c(-c3cc(S(=O)(=O)N4CCN(C)CC4)ccc3OCC)nc12", "note": "[sildenafil base]", "values": [{"measurement": "pH at which the mixture completely solubilized", "value": 3.83}, {"measurement": "pH at which the mixture was fully solubilized", "value": 4.92}, {"measurement": "dissolution", "setting": "Example 1a: 840 mg in 40 ml, pH 5.6 (1M HCl), stirred 10 minutes", "value": "remaining opaque and undissolved"}, {"measurement": "dissolution", "setting": "Example 1a: 840 mg in 40 ml, stirred at pH 4.25 for 1 hour, final pH 4.28", "value": "totally transparent and without precipitate"}, {"measurement": "dissolution", "setting": "Example 1a: 840 mg in 40 ml, unadjusted pH 7.7, stirring 10 minutes", "value": "remained undissolved"}, {"measurement": "dissolution", "setting": "Example 1b: 840 mg with 840 mg sucralose in 40 ml, pH 5.6 (1M HCl), stirred 10 minutes", "value": "remaining opaque and undissolved"}, {"measurement": "dissolution", "setting": "Example 1b: 840 mg with 840 mg sucralose in 40 ml, unadjusted pH 7.7, stirring 10 minutes", "value": "remained undissolved"}, {"measurement": "dissolution", "setting": "Example 1c: 945 mg with 945 mg sucralose in 45 ml, unadjusted pH 7.7, stirring 10 minutes", "value": "remained undissolved"}]}
